Results: ChEMBL document CHEMBL5370627, “Novel Indazole Compounds as TEAD Inhibitors for Treating Cancer” (ACS Med Chem Lett, 2023)
pIC50: −log10 of the molar value.

What was measured:
[1] = molecular target: Transcriptional enhancer factor TEF-1 (Homo sapiens, UniProt P28347); assay: Inhibition of His-tagged TEAD1 (unknown origin) preincubated for 0.5 to 4 hrs followed by biotinylated lipid pocket probe addition and measured after 60 min by TR-FRET assay
[2] = molecular target: Transcriptional enhancer factor TEF-3 (Homo sapiens, UniProt Q15561); assay: Inhibition of His-tagged TEAD4 (unknown origin) preincubated for 0.5 to 4 hrs followed by biotinylated lipid pocket probe addition and measured after 60 min by TR-FRET assay
[3] = molecular target: Transcriptional enhancer factor TEF-4 (Homo sapiens, UniProt Q15562); assay: Inhibition of His-tagged TEAD2 (unknown origin) preincubated for 0.5 to 4 hrs followed by biotinylated lipid pocket probe addition and measured after 60 min by TR-FRET assay
[4] = molecular target: Transcriptional enhancer factor TEF-5 (Homo sapiens, UniProt Q99594); assay: Inhibition of His-tagged TEAD3 (unknown origin) preincubated for 0.5 to 4 hrs followed by biotinylated lipid pocket probe addition and measured after 60 min by TR-FRET assay
Chain of Transcriptional enhancer factor TEF-5 (Q99594 whole entry): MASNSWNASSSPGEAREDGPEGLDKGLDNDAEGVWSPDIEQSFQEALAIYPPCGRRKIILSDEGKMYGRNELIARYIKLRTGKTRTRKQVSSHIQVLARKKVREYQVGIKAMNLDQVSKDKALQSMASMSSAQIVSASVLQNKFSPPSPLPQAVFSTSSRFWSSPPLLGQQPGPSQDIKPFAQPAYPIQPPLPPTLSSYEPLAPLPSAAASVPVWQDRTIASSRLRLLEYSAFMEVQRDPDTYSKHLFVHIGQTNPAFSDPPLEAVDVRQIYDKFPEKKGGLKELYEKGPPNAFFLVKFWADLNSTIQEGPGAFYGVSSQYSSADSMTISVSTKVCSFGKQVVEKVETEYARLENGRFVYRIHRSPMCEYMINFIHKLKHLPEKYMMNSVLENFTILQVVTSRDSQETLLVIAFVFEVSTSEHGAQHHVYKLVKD

Chain of Transcriptional enhancer factor TEF-3 (Q15561 whole entry): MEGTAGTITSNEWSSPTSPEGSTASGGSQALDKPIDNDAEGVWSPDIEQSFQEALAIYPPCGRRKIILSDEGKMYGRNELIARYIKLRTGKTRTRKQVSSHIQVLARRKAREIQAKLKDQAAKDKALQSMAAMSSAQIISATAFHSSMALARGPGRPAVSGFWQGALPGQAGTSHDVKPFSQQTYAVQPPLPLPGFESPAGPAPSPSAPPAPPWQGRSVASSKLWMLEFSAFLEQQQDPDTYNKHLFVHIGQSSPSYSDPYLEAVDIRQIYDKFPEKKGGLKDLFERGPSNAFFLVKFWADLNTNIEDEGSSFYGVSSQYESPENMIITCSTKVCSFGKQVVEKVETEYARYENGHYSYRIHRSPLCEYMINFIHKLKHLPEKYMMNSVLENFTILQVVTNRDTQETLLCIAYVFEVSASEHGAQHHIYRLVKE
Chain of Transcriptional enhancer factor TEF-1 (P28347 whole entry): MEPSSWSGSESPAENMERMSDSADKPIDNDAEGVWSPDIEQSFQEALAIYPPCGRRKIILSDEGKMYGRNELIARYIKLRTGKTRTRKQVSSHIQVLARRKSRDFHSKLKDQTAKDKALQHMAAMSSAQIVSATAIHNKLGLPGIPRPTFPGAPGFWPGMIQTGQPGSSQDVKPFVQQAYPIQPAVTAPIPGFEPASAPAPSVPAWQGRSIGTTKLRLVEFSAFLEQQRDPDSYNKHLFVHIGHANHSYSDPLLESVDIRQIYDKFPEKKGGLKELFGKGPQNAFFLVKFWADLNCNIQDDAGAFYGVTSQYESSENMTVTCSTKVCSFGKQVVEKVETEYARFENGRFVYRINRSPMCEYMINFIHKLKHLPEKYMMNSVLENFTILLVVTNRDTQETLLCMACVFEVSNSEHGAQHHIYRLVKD
Chain of Transcriptional enhancer factor TEF-4 (Q15562 whole entry): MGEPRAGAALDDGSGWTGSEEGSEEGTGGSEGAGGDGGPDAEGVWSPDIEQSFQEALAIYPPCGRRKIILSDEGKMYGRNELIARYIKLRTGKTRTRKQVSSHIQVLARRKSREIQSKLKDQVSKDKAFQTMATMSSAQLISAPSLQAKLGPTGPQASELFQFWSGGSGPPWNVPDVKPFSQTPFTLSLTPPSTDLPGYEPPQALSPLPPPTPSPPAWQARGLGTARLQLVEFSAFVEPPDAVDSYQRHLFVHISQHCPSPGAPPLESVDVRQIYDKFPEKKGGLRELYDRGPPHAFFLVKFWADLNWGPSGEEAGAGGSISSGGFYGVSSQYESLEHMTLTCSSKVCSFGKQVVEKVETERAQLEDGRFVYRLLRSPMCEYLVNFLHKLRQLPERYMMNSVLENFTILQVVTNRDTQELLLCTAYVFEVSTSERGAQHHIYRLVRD

## O=C(/C=C/CO)N1CC(c2nn(-c3ccc(OC(F)(F)F)cc3)c3nccc(Cl)c23)C1
[1]
  pIC50: 8.10
[2]
  pIC50: 8.52

## C#Cc1ccnc2c1c(C1CN(C(=O)C=C)C1)nn2-c1ccc(OC(F)(F)F)cc1
[3]
  pIC50: 8.70
[1]
  pIC50: 8.40
[2]
  pIC50: 8.05
[4]
  pIC50: 8.30
